Measurements reported in patent publication US5252571A, “1,4-benzothiazine-2-acetic acid derivatives” (Sapporo Breweries Limited, priority 1990, dated 1993).
Where two headings read alike, the source gives them in different places.

Tests used:
[1] = target: T1, human placenta aldose reductase (Homo sapiens, UniProt P15121); assay: Aldose reductase of human origin inhibitory activity; type: biochemical; settings: for IC50: d1-glyceraldehyde 3 mM, pH 6.2, 25° C., read-out: IC50 HPAR (human placenta aldose reductase; head prints HPAP); for Ratio HPALR/HPAR: ratio of IC50 aldehyde reductase to aldose reductase, human placenta
T1 construct: The aldose reductase enzyme standard was prepared from human placenta; from tissue; host or cells: human placenta
Description: (§1) That is, human placenta stored at -80° C. was homogenized in distilled water followed by centrifugation at 10,000 XG for 15 minutes. […] The dialysate was applied to DEAE-cellulose column. The fraction containing aldose reductase activity eluted by salt concentration gradient was dialyzed and used as aldose reductase enzyme standard. Furthermore, after fractionation with ammonium sulfate solution, the dialysate was applied to Red Sepharose CL-6B, the fraction containing aldehyde reductase activity eluted by salt concentration gradient was dialyzed and used as aldehyde reductase enzyme standard.
That is, 25 μl of the enzyme solution described above and 25 μl of a drug solution in 1% DMSO having various concentrations were added to 200 μl of 40 Mm phosphate buffer (pH 6.2) prepared to contain 0.4 M lithium sulfate and 0.1 mM NADPH (reduced nicotinamide adenine dinucleotide phosphate) in final concentrations and containing 3 mM d1-glyceraldehyde as substrate, respectively.

[2] = target: T2, human placenta aldehyde reductase (Homo sapiens, UniProt P14550); assay: Aldehyde reductase of human origin inhibitory activity (specificity); type: biochemical; settings: 15 mM glucuronate, pH 7.0, read-out: 10 μM inhibition % HPALR
T2 construct: the fraction containing aldehyde reductase activity eluted by salt concentration gradient was dialyzed and used as aldehyde reductase enzyme standard; from tissue; host or cells: human placenta
T2 sequence (P14550 1-325): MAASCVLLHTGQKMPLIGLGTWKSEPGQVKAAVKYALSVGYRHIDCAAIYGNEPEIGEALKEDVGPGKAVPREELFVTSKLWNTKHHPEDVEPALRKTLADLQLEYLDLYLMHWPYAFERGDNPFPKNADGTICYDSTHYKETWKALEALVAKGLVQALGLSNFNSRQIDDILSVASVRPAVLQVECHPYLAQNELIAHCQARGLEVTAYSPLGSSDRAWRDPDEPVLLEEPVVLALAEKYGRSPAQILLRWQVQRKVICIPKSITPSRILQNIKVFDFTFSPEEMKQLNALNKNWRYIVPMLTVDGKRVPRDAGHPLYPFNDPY
Description: as §1
That is, the activity was determined in a manner similar to the case of determining aldose reductase activity, using 200 mM phosphate buffer (pH 7.0) prepared to contain 0.1 mM NADPH in a final concentration and 15 mM glucuronate as substrate.

[3] = tested on: tissue sorbitol in streptozotocin-induced diabetic rats; assay: Inhibitory activity of accumulation of tissue sorbitol in streptozotocin-induced diabetic rats; type: in vivo, Sprague-Dawley rats; settings: 30 mg/kg oral 4, 8 and 24 hours after streptozotocin, control = 100%, Tukey's test *p < 0.05, **p < 0.01; for Accumulation of Tissue Sorbitol (%), Nerve: sciatic nerve
Description: 4) Inhibitory activity of accumulation of tissue sorbitol in streptozatocini-induced diabetic rats.
Sprague-Dawley rats (male,6 weeks of age, one group composed of 5 to 6 rats), fasted overnight, were made diabetic by single intravenous injection of 60 mg/kg body weight of streptozotocin (SIGMA Co. ) , which had been freshly dissolved in normal saline solution.
The compound was orally administered in the form of 0.5% carboxymethylcellulose suspension in a dose of 30 mg/kg 4, 8 and 24 hours after the injection of streptozotocin. During the test, rats were free access to feed and water. Three hours after the final administration, the sorbitol contens in tissues (red blood cell, sciatic nerve, lens) Were determined by the enzyme method of Bergmeyer et al. [cf., H. Y. Bergmeyer et al., Methods of Enzymatic Analysis, 3, 1323-1330, 1974], using SDH (sorbitol dehydrogenase) and AND (β-nicotinamide adenine dinucleotide). The results are shown by percentage (%) when the value obtained with control group administered with 0.5% carboxymethylcellulose solution as a solvent instead of the compound was made 100%.

[4] = tested on: sorbitol in lens withdrawn from rat; assay: Activity for preventing accumulation of sorbitol in lens withdrawn from rat; type: cell-based, SD rat; settings: 50 mM glucose, 10^-6 M test drug, 4 hours, 1% DMSO = 100%, read-out: Sorbitol Content (%)
Description: 2) Activity for preventing accumulation of sorbitol in lens withdrawn from rat
The lens withdrawn from SD rats of 7 to 8 weeks age was incubated in 2.0 ml of Kreb's solution (pH 7. 4) containing 50 mM glucose and 10^-6 M test drug for 4 hours. The sorbitol content formed in the tissue was assayed by the enzyme method of Bergmeyer et al. [cf., H. Y. Bergmeyer et al., Methods of Enzymatic Analysis, 3, 1323-1330, 19741 using SDH (Sorbitol dehydrogenase) and AND (β-nicotinamide adenine dinucleotide). The sorbitol content was made 100% when 1% DMSO as a solvent was added in place of the drug and the activity of the drug was determined.

aldose reductase = target: T3, aldose reductase (Sus scrofa, UniProt P80276); assay: Aldose reductase inhibitory activity (porcine crystalline lens enzyme); type: biochemical
T3 construct: porcine crystalline lens stored at -80° C. was homogenized in distilled water; from tissue; host or cells: porcine crystalline lens
Description: Aldose reductase enzyme standard was prepared from porcine crystalline lens by the method of Hayman et al. (cf., S. Hayman et al., Journal of Biological Chemistry, 240, 877-882, 1965). That is, porcine crystalline lens stored at -80° C. was homogenized in distilled water followed by centrifugation at 10,000 XG for 15 minutes. The supernatant was dissolved to make 40% ammonium sulfate solution. The supernatant centrifuged at 10,000 XG for further 10 minutes was dialyzed to 0.05 M sodium chloride solution overnight. The thus obtained dialysate was used as the enzyme standard.
The activity of aldose reductase was determined by the method of Hayman et al. supra. That is, 25 μl of the enzyme solution described above and […] of a drug solution in 1% DMSO having various concentrations were added to 200 μl of 40 mM phosphate buffer (pH 6.2) prepared to contain […] lithium sulfate and 0.1 MM NADPH (reduced nicotinamide adenine dinucleotide phosphate) in final concentrations and Containing 3 mM d1-glyceraldehyde as substrate, respectively. Thereafter, the mixture was reacted at 25° C. for 2 minutes and change in absorbance at 340 nm was determined using COBAS FARA II (Roche Co.).

ICR strain mice = assay: Safety test, single oral administration in mice with 14 days observation; type: in vivo; settings: 300 mg/kg oral, male ICR mice
Description: Next, safety of the compounds of the present invention was verified by the following test.
After normal ICR strain mice (male, 7 weeks age, 5 mice being into one group) was fasted for 18 hours, each compound (300 mg/kg) of Examples 1311, 132, 134, 156, 173, 179, 183 and 188 was orally administered in the form of 0.5% carboxymethylcellulose suspension. In the control group, 0.5% carboxymethylcellulose solution alone was orally administered. […] During the observation, mice were free access to feed and water.

[5] = d1-glyceraldehyde 3 mM, pH 6.2, 25° C., 2 minutes

In the case of Cc1ccc2c(c1)N(Cc1nc3c(F)c(F)cc(F)c3s1)C(=O)C(CC(=O)O)S2 (stereo not drawn) [Example 165, 2-[4-(4,5,7-Trifluorobenzothiazol-2-yl)methyl-6-methyl-3,4-dihydro-3-oxo-2H-1,4-benzothiazin-2-yl]acetic acid], the IC50 [1] is reported as 12 nM, the “Ratio HPALR/HPAR” value [1] is reported as over 833 and the inhibition at 10 µM [2] is reported as 32.9%.
With O=C(O)CC1Sc2cc(F)ccc2N(Cc2nc3c(F)c(F)cc(F)c3s2)C1=O (stereo not drawn) [Example 188, 2-[4-(4,5,7-Trifluorobenzothiazol-2-yl)methyl-7-fluoro-3,4-dihydro-3-oxo-2H-1,4-benzothiazin-2-yl]acetic acid] the IC50 [1] was 14 nM, the “Ratio HPALR/HPAR” value [1] was over 714 and the “Accumulation of Tissue Sorbitol (%), Lens” value (“Accumulation … (%), Lens” for short) [3] was 32.5%. For the same molecule, the “Accumulation of Tissue Sorbitol (%), Red Blood Cell” value (“Accumulation … (%), Red Blood Cell” for short) [3] was 15.7%, the “Accumulation of Tissue Sorbitol (%), Nerve” value (shortened to “Accumulation … (%), Nerve”) [3] was 0.0% and the activity at 1 µM [4] was 38%. For the same molecule, the IC50 (aldose reductase; [5]) was 9.7 nM, the body weight (ICR strain mice) was “progressed as in the control group” and the mice dead (ICR strain mice) was “none”. It also gave an inhibition at 10 µM [2] of 19.1%.
With O=C(O)CC1Sc2ccccc2N(Cc2nc3c(F)c(F)ccc3s2)C1=O (stereo not drawn) [Example 189, 2-[4-(4,5-Difluorobenzothiazol-2-yl)methyl-3,4-dihydro-3-oxo-2H-1,4-benzothiazin-2-yl]acetic acid] the IC50 [1] was 9.3 nM, the “Ratio HPALR/HPAR” value [1] was over 1075 and the “Accumulation … (%), Lens” value [3] was 30.7%. For the same molecule, the “Accumulation … (%), Red Blood Cell” value [3] was 16.6%, the “Accumulation … (%), Nerve” value [3] was 1.1% and the activity at 1 µM [4] was 37%. The IC50 (aldose reductase; [5]) was 9.9 nM and the inhibition at 10 µM [2] was 18.5%.
In the case of O=C(O)CC1Sc2c(F)cccc2N(Cc2nc3c(Cl)c(Cl)ccc3s2)C1=O (stereo not drawn) [Example 167, 2-[4-(4,5-Dichlorobenzothiazol-2-yl)methyl-8-fluoro-3,4-dihydro-3-oxo-2H-1,4-benzothiazin-2-yl]acetic acid], the IC50 [1] is reported as 13 nM, the “Ratio HPALR/HPAR” value [1] is reported as over 769 and the inhibition at 10 µM [2] is reported as 28.6%.
CC(C)c1cccc2c1OC(C(C)C)C(=S)N2CC(=O)O (stereo not drawn) [Compound A, 3,4-dihydro-2,8-diisopropyl-3-thioxo-2H-1,4-benzoxazine-4-acetic acid, reference compound] was tested, and the “Accumulation … (%), Lens” value [3] was 87.3%, the “Accumulation … (%), Red Blood Cell” value [3] was 53.7% and the “Accumulation … (%), Nerve” value [3] was 54.9%. It also gave an activity at 1 µM [4] of 56% and an IC50 (aldose reductase; [5]) of 21 nM.
In the case of O=C(O)CC1Sc2ccccc2N(Cc2nc3c(F)c(F)cc(F)c3s2)C1=O (stereo not drawn) [Example 183, 2-[4-(4,5,7-Trifluorobenzothiazol-2-yl)methyl-3,4-dihydro-3-oxo-2H-1,4-benzothiazin-2-yl]acetic acid], the IC50 [1] is reported as 10 nM, the “Ratio HPALR/HPAR” value [1] is reported as over 1000 and the “Accumulation … (%), Lens” value [3] is reported as 39.1%. For the same molecule, the “Accumulation … (%), Red Blood Cell” value [3] was 25.8%, the “Accumulation … (%), Nerve” value [3] was 3.1% and the activity at 1 µM [4] was 29%. For the same molecule, the IC50 (aldose reductase; read-out: IC50 (50% inhibitory concentration, aldose reductase), d1-glyceraldehyde 3 mM, pH 6.2, 25° C., 2 minutes) was 9.5 nM, the body weight (ICR strain mice) was “progressed as in the control group” and the mice dead (ICR strain mice) was “none”. For the same molecule, the inhibition at 10 µM [2] was 19.3%.
